Results published in US8859235B2, “Methods in cell cultures, and related inventions, employing certain additives” (priority 2009, dated 2014).

Assays:
[1] = system: E. coli JM109; test: Growth and GFPuv expression in E. coli JM109, shake flask cultivation in mineral medium; type: cell-based, Escherichia coli; settings: Experiment 2, additive 5 mM, 20 h, mean of two
Experimental: Precultures are prepared in 250 mL baffled shake flasks containing 25 mL sterile mineral medium [macronutrients in g/L: Glycerol (25), (NH4)2-citrate (1.0), Na2HPO4 2H2O (9.0), KH2PO4 (1.82), NH4Cl (1.52), MgSO4 (0.12), (NH4)2SO4 (0.6); Ampicillin ([…]); micronutrients in mg/L: Na2-EDTA (8.4), thiamine (4.5), Fe(III) citrate (12.5), Na2MoO4 2×H2O (2.5), H3BO3 (3), CoCl2 6×H2O (2.5), CuSO4 5×H2O (0.45) MnCl24×H2O (15), ZnCl2 (8) adjusted to pH 7.0]. Cultures are inoculated with 250 μL of a glycerol stock stored at −80° C. of E. coli JM109 (Promega Inc, Wallisellen, C H; Genotype: endA1, recA1, gyrA96, thi, hsdR17 (rk^−, mk^+), re/A1, supE44, Δ(lac-proAB), [F″ traD36, proAB, laql^qZΔM15]) harboring the plasmid pBAD-GFPuv (Biorad Inc., Reinach, C H; Genbank U62637.1, containing the GFPuv gene under control of the ara promoter; GFP=Green Fluorescent Protein). Precultures are incubated at 37° C. for 10-12 h.
Experimental cultures are performed in a volume of 25 mL of the above described medium in 250 mL baffled shake flasks. Stabilizers according to the invention are added to a final concentration of 5 mM as indicated from sterile stock solutions. Cultures are started by inoculating with the preculture to an optical density at 600 nm (OD600) of 0.25. Growth of the culture is monitored by reading optical density at 600 nm. Cultures are induced by adding L-arabinose to a final concentration of 0.2% (w/v) when the OD600 reaches 0.5. Samples of 1 mL are taken 6 and 20 h after induction for OD600 reading and GFP quantification. For GFP quantification 1 mL of the culture is harvested after 2-4 h and after 20 h after induction. Cells are collected by centrifugation at 16 000 g and the cell pellet is stored at −20° C. for further analysis.
(§1) The measurement of GFP expression by whole cell fluorescence measurements follows the procedure of Scholz et al. (Eur. J. Biochem., 2000,267, 1565-1570). Frozen cell pellets are thawed, resuspended in 1 mL PBS [NaCl (8 g/L), KCl (0.2), of Na2HPO4 (1.44), KH2PO4 (0.24), adjusted to pH 7.4] and subsequently diluted to an optical density of 0.1. GFP fluorescence of whole cells is measured in a Eclipse Fluorometer (Varian) with an excitation wavelength of 400 nm and an emission wavelength of 512 nm. Specific relative fluorescence [RFU/OD600] is calculated by dividing the relative fluorescence emmision units by the optical density of the suspension at 600 nm.

[2] = system: E. coli BL21; test: Growth and GFPuv expression in E. coli BL21 (DE3), shake flask batch culture in complex medium; type: cell-based, Escherichia coli; settings: additive 5 mM, 20 h after induction
Experimental: as §1
Precultures are prepared in 250 mL baffled shake flasks containing 25 mL sterile LB medium [Tryptone (10.0 g/L), yeast extract (5.0), NaCl (10.0), kanamycin 30 (mg/L); adjusted to pH 7.0 with NaOH]. Cultures are inoculated with 250 μL of a glycerol stock stored at −80° C. of E. coli BL21 [Novagen, Madison, USA; Genotype: E ompT hsdSB (rB^− mB^−) gal dcm (DE3)] harboring the plasmid pET28a-GFPuv which is obtained by inserting the GFPuv gene (isolated from pBAD-GFPuv through PCR) into the EcoRI site of pET28a (Novagen, Madison, USA) which placed the GFPuv gene under the control of the T7/Lac promotor system. Precultures are incubated at 37° C. for 10-12 h.
Experimental cultures are performed in a volume of 25 mL of the above described medium in 250 mL baffled shake flasks. Stabilizers are added to a final concentration of 5 mM as indicated from sterile stock solutions. Cultures are started by inoculating with the preculture to an OD600 at 600 nm of 0.25. Samples are taken for OD600 measurements. Cultures are induced by adding IPTG (Isopropyl-β-D-thiogalactoside) to a final concentration of 0.5 mM when the OD600 reaches 0.5. Samples of 1 mL are taken after induction for OD600 reading and GFP quantification. For GFP quantification 1 mL of the culture is harvested after 2-4 h and after 20 h after induction. Cells are collected by centrifugation at 16 000 g and the cell pellet is stored at −20° C. for further analysis. Analysis of in vivo GFP fluorescence is performed by the method described in Example 1.

## CC1(C)CC(O)CC(C)(C)N1[O] [4-Hydroxy-2,2,6,6-tetramethylpiperidin-1-oxyl]
[1]; control 11.0
  Growth (Final OD600): 9.5 OD600
[1]; control 1423
  GFP expression (Relative fluorescence unit*OD600^−1): 7276 Relative fluorescence unit*OD600^−1
[2]; Experiment 1, control 3.4
  Growth (Final OD600): 2.4 OD600
[2]; Experiment 1, control 584
  GFP expression (Relative fluorescence unit*OD600^−1): 1909 Relative fluorescence unit*OD600^−1
[2]; Experiment 2, control 3.3
  Growth (Final OD600): 2.61 OD600
[2]; Experiment 2, control 195
  GFP expression (Relative fluorescence unit*OD600^−1): 319 Relative fluorescence unit*OD600^−1
